Paper PMC11558679, “Artificial Zymogen Based on Protein–Polymer Hybrids” (Biomacromolecules, 2024)
“And” between values parts separate entries of the source, which are not always exact repeats. Identical values can stand only once. Like-named read-outs stand apart in the source and are kept apart here. Values belong to the molecule of their own block, whether it stands above or below them. Square brackets hold non-standard residues; d marks the D form. Peptide text beside a SMILES is read from it. * marks the point of attachment. OEGMA = oligo(ethylene glycol) methacrylate; PEG4 = NCCOCCOCCOCCOCCC(=O)O; Tos = Cc1ccc(S(=O)(=O)*)cc1; Isobutyryl = CC(C)C(=O)*; NHBn = c1ccc(CN*)cc1; Sar = CNCC(=O)O

Key:
Format in all cases: biochemical, bovine
[1] = target: T1, native chymotrypsin (Bos taurus, UniProt P00766); test: Inhibition of native chymotrypsin by model peptide inhibitor and macromonomer; conditions: for KM/Vmax / apparent Vmax / kcat / kcat/KM / Km: [sucAAPFpNA]0 = 0–768 µM; for Km: read-out: apparent KM
T1 construct: α-Chymotrypsin from bovine pancreas, Type II (CT); purchased Sigma-Aldrich; host or cells: bovine pancreas
Excerpt: (§1) Co mparison of K M of peptide substrates and K i of model peptide inhibitors and ma cro mono mers against native trypsin and chymotrypsin.
(§2) By observing the initial rate of enzyme activity in the presence of th e peptide inhibitor or macromonomer, the K i value of the inhibitor peptide and macromonomers can be determined (Figures S9 for native trypsin,and S14 for native ch ymotrypsin). The apparent KM and Vmax values are obtained b y si multaneousl y mixing nat ive trypsin or ch ymotr ypsin, a peptide substrat e, and a peptide inhibitor, and then monitoring the pNA produced b y enzymatically catal yzed hydrol ysis of the p eptide substrate. The apparent KM and Vmax values were calculated using EnzFitter with Michaelis-Menten curve fitting of substrate against initial velocity plots ( Fi g u re S10 and S12 and Table S1 and S2 for native trypsin, and Figure S15 and S17 and T ab l e S3 and S4 for native ch ymotr ypsin ). The plot of K M ass/Vma x app versus [I]0 or [macromonomers]0 yields a straight line with a y-intercept of K M/Vmax and a slope of K M/(Vmax ·Ki) (Figures S11 and S13 for native tr ypsin and S1 6 and S18 for native ch ymotrypsin, respsctiver y ). The inhibition constant (Ki) of the peptide inhibi tor or macromonomer was calculated b y simply dividing the y -inter cept […]
Figure S1 5 .Michaelis -Menten Plots adding a peptide inhibitor to a native c hymot r yps i n s ol ut i on.
Table S3. Apparent KM a nd Vma x values for native […] incubated with suc-AAPF -pNA ( subst r at e) and IB -AAPFSar-OMe (inhibitor) at 37 °C in 100 mM sodium phosphate buffer (pH 8.0) […]
Buffer: 100 mM sodium phosphate (pH 8.0) at 37 °C, [CT]0 = 40 nM, [sucAAPFpNA]0 = 0 – 768 µ M and [IBAAPFSarOMe]0 = 0 – 500 µM, Monitor Abs at 412 nm.
Table S4. Apparent KM a nd Vma x values for native […] incubated with suc-AAPF -pNA ( subst r at e) and macromonomer containing a TR cleavable and CT inhibiting peptides
(IBAAPFSarPEG4GPRGGOEGMA) at 37 °C in 100 mM sodium phosphate buffer (pH 8.0) . […]
macro mono mer]0 = 0 – 400 µM, Monitor Abs at 412 nm.
Figure S18. Michaelis -Menten Plots adding a macromonomer containing a TR cleavable and CT inhibiting peptides (IBAAPFSarPEG4GPRGGOEGMA) to a native chymotrypsin solution.

[2] = target: T2, native trypsin (Bos taurus, UniProt P00760); test: Inhibition of native trypsin by model peptide inhibitor and macromonomer; conditions: for Km: read-out: apparent KM; for Ki: substrate Tos-GPR-pNA, 100 mM Tris-HCl and 20 mM CaCl2 (pH 8.0), 37 °C, [TR]0 = 8.4 nM, from secondary plot KM/Vmax app vs [I]0
T2 construct: purchased Sigma-Aldrich; host or cells: bovine pancreas
T2 sequence (P00760 24-246): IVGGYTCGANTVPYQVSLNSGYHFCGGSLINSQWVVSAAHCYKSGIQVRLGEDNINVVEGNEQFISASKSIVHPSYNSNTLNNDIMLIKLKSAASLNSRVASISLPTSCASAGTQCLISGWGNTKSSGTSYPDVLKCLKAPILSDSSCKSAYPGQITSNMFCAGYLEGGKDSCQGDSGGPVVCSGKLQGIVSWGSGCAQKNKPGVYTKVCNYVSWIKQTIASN
Excerpt: as §1, §2
(1 picture or pasted object on this page, not shown here)
Table S1. Apparent KM a nd Vma x values for native trypsin incubated with Tos-GPR-pNA (substrate) and Tos-GPRP -NHBzl (inhibitor) at 37 °C in 100 mM Tris-HCl and 20 mM CaCl2 buffer (pH 8.0) […]
Buffer: 100 mM Tris-H Cl a nd 20 mM Ca Cl2 (pH 8.0) at 37 °C, [TR]0 = 8.4 nM, [TosGPRpNA]0 = 0 – 302 µ M a nd [TosGP RP Bzl]0 = 0 – 500 µM, Monitor Abs at 412 nm.
Figure S11. Secondary plot with calculated apparent K M and Vmax values were used to determine inhibition constants of the peptide inhibitor towards native trypsin.
Figure S12. Michaelis-Menten Plots adding a the macromonomer containing a CT -cleavable and a TR-inhibiting peptides (T o s GPRPr o -PEG4-AAPFAA OE GMA) to a native trypsin solution.
Table S2. Apparent KM a nd Vma x values for native trypsin incubated with Tos-GPR-pNA (substrate) and the macromonomer containing a CT -cleavable and a TR-inhibiting peptides (TosGPRPro-PEG4-AAPFAA OEGMA) at 37 °C in 100 mM Tris -HCl and 20 mM CaCl2 buffer (pH 8.0) .
Buffer: 100 mM Tris-H Cl a nd 20 mM Ca Cl2 (pH 8.0) at 37 °C, [TR]0 = 8.4 nM, [TosGPRpNA]0 = 0 – 241 µ M a nd [ macro mono mer]0 = 0 – 200 µM, Monitor Abs at 412 nm.

[3] = Biocatalytic assay (Michaelis–Menten) of TR and TR hybrids with Tos-Gly-Pro-Arg-pNA
Description: N-Tosyl-L-Gly-L-Pro-L-Arg-p-nitroanilide was used as a substrate for enzyme bioactivity assays. In a cuvette, 0.1 M Tris HCl and 20 mM calcium chloride buffer (890–990 μL, pH 8.0), substrate (0–100 μL, 2 mg/mL in DMSO), and enzyme (10 μL, 0.02 mg TR/mL in 100 mM Tris–HCl and 20 mM calcium chloride (pH 8.0), 8.4 nM as final concentration) were mixed for enzyme bioactivity assays. The rate of hydrolysis was determined by recording the increase in absorbance at 412 nm for the first 45 s after mixing. KM and kcat values were calculated using Enzfitter software when plotting substrate concentration versus initial hydrolysis velocity. […]
Table S5. Char acterization and enzymatic activity of TR-pCBMA and inhibited pro- T R pol ymer h ybr i ds with different linkers between the inhibitory and cleavable peptide moieties.
SEC-M ALLS anal ysi s Michaelis-Menten parameters d
Mnb Mwb Đb DPc KM kcat kcat/KM samples kg mol-1 kg mol-1 (CBM A/inhibitor) (µM) (s-1) (µM-1 s-1) […]
SEC -MALLS and 1H NMR spectra. d conditions: [TR]0 = 8.4 nM, [Tos-GPR-pNA]0 = 0 - 302 µM, buffer 100 mM Tris-HCl and 20 mM CaCl2 (pH 8.0) at 37 °C. […]

[4] = [macromonomer]0 = 50 µM, [TosGPRpNA]0 = 0–241 µM
[5] = [macromonomer]0 = 100 µM, [TosGPRpNA]0 = 0–241 µM
[6] = [macromonomer]0 = 150 µM, [TosGPRpNA]0 = 0–241 µM
[7] = [macromonomer]0 = 200 µM, [TosGPRpNA]0 = 0–241 µM
[8] = [TR]0 = 8.4 nM, [Tos-GPR-pNA]0 = 0–302 μM, 100 mM Tris–HCl and 20 mM CaCl2 (pH 8.0), 37 °C, absorbance 412 nm, first 45 s, Enzfitter

- Ki [1]: 660 µM
- KM/Vmax ([1]; [inhibitor]0 = 125 µM): 62.9 ± 6.8 s
- KM/Vmax ([1]; [inhibitor]0 = 250 µM): 75.9 ± 11.5 s
- KM/Vmax ([1]; [inhibitor]0 = 375 µM): 84.8 ± 12.7 s
- KM/Vmax ([1]; [inhibitor]0 = 500 µM): 99.6 ± 11.7 s
Molecule: COC(=O)CN(C)C(=O)[C@H](Cc1ccccc1)NC(=O)[C@@H]1CCCN1C(=O)[C@H](C)NC(=O)[C@H](C)NC(=O)C(C)C [isobutyryl-Ala-Ala-Pro-Phe-Sar-OMe] (Isobutyryl-AAPF[Sar]-OMe)

Molecule: Tos-Gly-Pro-Arg-Pro-PEG4-Ala-Ala-Pro-Phe-Ala-Ala-OEGMA [TosGPRPro-PEG4-AAPFAA OEGMA]
- KM/Vmax [2, 4]: 62.9 ± 7.3 s
- apparent Vmax [2, 4]: 0.45 ± 0.02 µM/s
- kcat [2, 4]: 53.4 ± 2.3 s⁻¹
- kcat/KM [2, 4]: 1.89e+06 ± 310000 M⁻¹ s⁻¹
- Km [2, 4]: 28.2 ± 4.5 µM
- KM/Vmax [2, 5]: 77.9 ± 6.3 s
- apparent Vmax [2, 5]: 0.24 ± 0.01 µM/s
- kcat [2, 5]: 28.7 ± 0.7 s⁻¹
- kcat/KM [2, 5]: 1.53e+06 ± 170000 M⁻¹ s⁻¹
- Km [2, 5]: 18.8 ± 2.1 µM
- KM/Vmax [2, 6]: 86.3 ± 7.8 s
- apparent Vmax [2, 6]: 0.31 ± 0.01 µM/s
- kcat [2, 6]: 36.5 ± 1.4 s⁻¹
- kcat/KM [2, 6]: 1.38e+06 ± 180000 M⁻¹ s⁻¹
- Km [2, 6]: 26.4 ± 3.2 µM
- KM/Vmax [2, 7]: 97.7 ± 12.1 s
- apparent Vmax [2, 7]: 0.36 ± 0.02 µM/s
- kcat [2, 7]: 43.3 ± 2.1 s⁻¹
- kcat/KM [2, 7]: 1.22e+06 ± 210000 M⁻¹ s⁻¹
- Km [2, 7]: 35.5 ± 6 µM
- Ki relative to KM (20 μM) of Tos-Gly-Pro-Arg-pNA ([2]; native TR): ~7.5 fold

Molecule: N-Tosyl-glycyl-L-prolyl-L-arginine p-nitroanilide acetate salt [Tos-Gly-Pro-Arg-pNA, reference compound]
- Km ([3]; rounded value in comparison with Ki, read-out: KM of the peptide substrate for native TR): 20 µM

- KM/Vmax ([2]; [inhibitor]0 = 125 µM, [TosGPRpNA]0 = 0–302 µM): 48.3 ± 4.1 s
- KM/Vmax ([2]; [inhibitor]0 = 250 µM, [TosGPRpNA]0 = 0–302 µM): 56.3 ± 5.0 s
- KM/Vmax ([2]; [inhibitor]0 = 375 µM, [TosGPRpNA]0 = 0–302 µM): 73.4 ± 3.7 s
- KM/Vmax ([2]; [inhibitor]0 = 500 µM, [TosGPRpNA]0 = 0–302 µM): 84.3 ± 6.0 s
- Ki ([2]; native TR): 430 µM
Molecule: Cc1ccc(S(=O)(=O)NCC(=O)N2CCC[C@H]2C(=O)N[C@@H](CCCNC(=N)N)C(=O)N2CCC[C@H]2C(=O)NCc2ccccc2)cc1 [Tos-Gly-Pro-Arg-Pro-NHBzl] (Tos-GPRP-NHBn)

Molecule: IB-Ala-Ala-Pro-Phe-Sar-PEG4-Gly-Pro-Arg-Gly-Gly-OEGMA [IBAAPFSarPEG4GPRGGOEGMA]
- KM/Vmax ([1]; [macromonomer]0 = 100 µM): 61.8 ± 6.2 s
- apparent Vmax ([1]; [macromonomer]0 = 100 µM): 1.25 ± 0.03 µM/s
- kcat ([1]; [macromonomer]0 = 100 µM): 34.8 ± 0.8 s⁻¹
- kcat/KM ([1]; [macromonomer]0 = 100 µM): 450000 ± 50000 M⁻¹ s⁻¹
- Km ([1]; [macromonomer]0 = 100 µM): 77.5 ± 7.6 µM
- KM/Vmax ([1]; [macromonomer]0 = 200 µM): 65.3 ± 6.9 s
- apparent Vmax ([1]; [macromonomer]0 = 200 µM): 1.25 ± 0.03 µM/s
- kcat ([1]; [macromonomer]0 = 200 µM): 34.9 ± 0.8 s⁻¹
- kcat/KM ([1]; [macromonomer]0 = 200 µM): 430000 ± 40000 M⁻¹ s⁻¹
- Km ([1]; [macromonomer]0 = 200 µM): 82.1 ± 8.4 µM
- KM/Vmax ([1]; [macromonomer]0 = 300 µM): 72.9 ± 7.1 s
- apparent Vmax ([1]; [macromonomer]0 = 300 µM): 1.18 ± 0.03 µM/s
- kcat ([1]; [macromonomer]0 = 300 µM): 32.8 ± 0.7 s⁻¹
- kcat/KM ([1]; [macromonomer]0 = 300 µM): 380000 ± 730000 M⁻¹ s⁻¹
- Km ([1]; [macromonomer]0 = 300 µM): 86.1 ± 8.1 µM
- KM/Vmax ([1]; [macromonomer]0 = 400 µM): 89.4 ± 11.8 s
- apparent Vmax ([1]; [macromonomer]0 = 400 µM): 1.12 ± 0.04 µM/s
- kcat ([1]; [macromonomer]0 = 400 µM): 31.0 ± 1.0 s⁻¹
- kcat/KM ([1]; [macromonomer]0 = 400 µM): 310000 ± 40000 M⁻¹ s⁻¹
- Km ([1]; [macromonomer]0 = 400 µM): 99.7 ± 12.6 µM
- Ki relative to KM (90 μM) of suc-Ala-Ala-Pro-Phe-pNA ([1]; native CT): 2.8 fold
- Ki ([1]; native CT, substrate suc-AAPF-pNA, 100 mM sodium phosphate (pH 8.0), 37 °C, [CT]0 = 40 nM, from secondary plot KM/Vmax app vs [I]0, read-out: Ki): 260 µM

- Ki ([2]; native TR): 150 µM
Molecule: Tos-Gly-Pro-Arg-Pro-PEG4-Ala-Ala-Pro-Phe-Ala-Ala-OEGMA (Tos-GPRP[PEG4]AAPFAA-{OEGMA}) [TosGPRPro-PEG4-AAPFAA OEGMA]

B1: trypsin from bovine pancreas, Type I (protein, UniProt P00760 24-246, looked up)
Serine protease 1: IVGGYTCGANTVPYQVSLNSGYHFCGGSLINSQWVVSAAHCYKSGIQVRLGEDNINVVEGNEQFISASKSIVHPSYNSNTLNNDIMLIKLKSAASLNSRVASISLPTSCASAGTQCLISGWGNTKSSGTSYPDVLKCLKAPILSDSSCKSAYPGQITSNMFCAGYLEGGKDSCQGDSGGPVVCSGKLQGIVSWGSGCAQKNKPGVYTKVCNYVSWIKQTIASN
notes: trypsin from bovine pancreas, Type I (TR), Sigma-Aldrich
- kcat [3, 8]: 63.5 s^–1 and 63.5 ± 1.3 s^–1
- kcat/KM [3, 8]: 2.87 ± 0.25 μM^–1 s^–1
- Km ([3]; [TR]0 = 8.4 nM, [Tos-GPR-pNA]0 = 0–302 μM, 100 mM Tris–HCl and 20 mM CaCl2 (pH 8.0), 37 °C, absorbance 412 nm, first 45 s, Enzfitter, read-out: KM): 22.2 ± 1.9 µM
